These results are taken from US20090252674A1, “Tripodal Ligands with the Coordinating Motifs K2 -BH2 or K3 -BH3 Relevant for Biomedical Applications of Organometallic Complexes” (Mallinckrodt Inc., priority 2005, published 2009).

A short description of the data set: HPLC analysis of the 6a preparation at different intervals of time (stability under physiologic conditions). The format is physicochemical. To be noted: PBS, pH 7.4. Here is the method: In a nitrogen-purged glass vial, 100 μL of a 2.5×10^−2 M aqueous solution of ligand 1 were added to 400 μL (7.5 mCi) of the organometallic precursor fac−[^99mTc(OH2)3(CO)3]^+, and the mixture was incubated at room temperature for 30 min. After this time, complex 6a has been obtained in 90% yield, as checked by gradient HPLC analysis (from 100% aqueous 0.1% CF3COOH solution to 100% CH3CN) using a Nucleosil column (10:m, 250 mm×4 mm). The chemical identity of 6a was confirmed by comparing its HPLC chromatogram with the HPLC profile of the analogue Re complex (6) (Retention time: Re, 25.78 min; ^99mTc, 26.28 min). HPLC analysis of the preparation of 6a, at different intervals of time, has shown that 6a is stable under physiologic conditions (PBS, pH 7.4), at least for a period of 24 h.

“[^99mTc (κ^3-H3B(Tim^Me))(CO)3] [complex 6a]”: the “stable under physiologic conditions, period” value is recorded as at least 24 h.
